Measurements from PubChem BioAssay (NCI).
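Each compound was tested at five concentrations against cells in 96-well plates for 48 hours. TGI denotes the concentration required for complete inhibition of growth.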

Legend:
Experiment in all cases: growth of human tumour cells (NCI), 48 h
HOP-92 NSCLC = tested on: HOP-92 NSCLC
MCF7 breast = tested on: MCF7 breast
SR leukemia = tested on: SR leukemia
MOLT-4 leukemia = tested on: MOLT-4 leukemia
T-47D breast = tested on: T-47D breast
KM12 colon = tested on: KM12 colon
SF-539 CNS = tested on: SF-539 CNS
NCI-H460 lung = tested on: NCI-H460 lung
SNB-19 CNS = tested on: SNB-19 CNS
UO-31 renal = tested on: UO-31 renal
HCC-2998 colon = tested on: HCC-2998 colon
SN12C renal = tested on: SN12C renal
MDA-MB-231 breast = tested on: MDA-MB-231 breast
IGROV1 ovarian = tested on: IGROV1 ovarian
SF-295 CNS = tested on: SF-295 CNS
PC-3 prostate = tested on: PC-3 prostate
NCI-H226 lung = tested on: NCI-H226 lung
MDA-N = tested on: MDA-N
UACC-62 melanoma = tested on: UACC-62 melanoma
DU-145 prostate = tested on: DU-145 prostate

Measured: TGI

O=C1CC2SC(COCc3ccccc3)(CCN2Cc2ccccc2)C1 (stereo not given)
81.9 µM: MCF7 breast
> 100 µM: HOP-92 NSCLC | SR leukemia | T-47D breast | KM12 colon | SF-539 CNS | NCI-H460 lung | SNB-19 CNS | UO-31 renal | HCC-2998 colon | SN12C renal | MDA-MB-231 breast | IGROV1 ovarian | SF-295 CNS | PC-3 prostate | NCI-H226 lung | MDA-N | UACC-62 melanoma | DU-145 prostate
91.9 µM: MOLT-4 leukemia
